Results reported in patent US20210059955A1, “SYSTEMS AND METHODS FOR DECRYSTALLIZATION OF URIC ACID” (RL Patents, LLC, priority 2019, published 2021).
Read-outs that look alike come from different tables or passages of the source.

Experiments:
[1] = tested on: uric acid serum levels; conditions: test subject A; for Uric acid serum level: saturated sodium bicarbonate water bath 38° C., twice a day 60 minutes
Experimental: (§1) The method of the experiment includes test subject A submerging an affected joint into a warm bath containing water and sodium bicarbonate. The heat was used to facilitate opening of skin pores to facilitate absorption of the active ingredient or agent. […] Control subject B submerged their affected foot into a pure water bath without any other substance or compound at 38° C. for twice a day for durations of 60 minutes, and for a total of six months. […] A phlebotomist drew a vial of blood from each subject's arm, and the samples were processed by an analyzer, model AU480, by Beckman Coulter.
(§2) Both test subject A and control subject B were diagnosed of hyperuricemia based on personal and clinical assessments, such as, e.g., multiple previous acute gout attacks, presence of swelling and tophi at the affected joint, and measured uric acid serum levels above […]. Both test subject A and control subject B were not on any medication at the time of the experiment, and maintained a low-purine diet, such as, e.g., primarily fruits, vegetables, and bread.

[2] = test subject A, over the six-month experiment
Experimental: as §1, §2

With `O=C([O-])O.[Na+]` [sodium bicarbonate] the “Overall course of uric acid content” value ([1]; over the six-month experiment) was “general decline”, the “Uric acid serum level” value ([1]; August 1 2018) was 6.79 mg/dL and the “Uric acid serum level” value ([1]; August 15 2018) was 6.47 mg/dL. For the same compound, the “Uric acid serum level” value ([1]; December 1 2018) was 5.41 mg/dL, the “Uric acid serum level” value ([1]; December 15 2018) was 5.20 mg/dL and the “Uric acid serum level” value ([1]; July 1 2018) was 6.62 mg/dL. The “Uric acid serum level” value ([1]; July 15 2018) was 6.58 mg/dL, the “Uric acid serum level” value ([1]; June 1 2018) was 6.99 mg/dL and the “Uric acid serum level” value ([1]; June 15 2018) was 7.15 mg/dL. For the same compound, the “Uric acid serum level” value ([1]; November 1 2018) was 5.37 mg/dL, the “Uric acid serum level” value ([1]; November 15 2018) was 5.34 mg/dL and the “Uric acid serum level” value ([1]; October 1 2018) was 5.47 mg/dL. For the same compound, the “Uric acid serum level” value ([1]; October 15 2018) was 5.40 mg/dL, the “Uric acid serum level” value ([1]; September 1 2018) was 5.98 mg/dL and the “Uric acid serum level” value ([1]; September 15 2018) was 5.59 mg/dL. The “Tophi by visual inspection” value [2] was “no longer visible”.
